This note sets out measurements from patent publication US11603355B2, “Charged ion channel blockers and methods for use” (Nocion Therapeutics, Inc., priority 2019, dated 2023).

Molecules are shown by their SMILES. pIC50: −log10 of the molar value. Counter-ions that a name gives are not always drawn. Some results are limits rather than exact numbers.

Series [1] deals with T1, NaV1.7 (Homo sapiens, UniProt Q15858).
T1 construct: expressed in transfected cells; host or cells: HEK293 (tetracycline-inducible)
T1 sequence (Q15858 whole entry): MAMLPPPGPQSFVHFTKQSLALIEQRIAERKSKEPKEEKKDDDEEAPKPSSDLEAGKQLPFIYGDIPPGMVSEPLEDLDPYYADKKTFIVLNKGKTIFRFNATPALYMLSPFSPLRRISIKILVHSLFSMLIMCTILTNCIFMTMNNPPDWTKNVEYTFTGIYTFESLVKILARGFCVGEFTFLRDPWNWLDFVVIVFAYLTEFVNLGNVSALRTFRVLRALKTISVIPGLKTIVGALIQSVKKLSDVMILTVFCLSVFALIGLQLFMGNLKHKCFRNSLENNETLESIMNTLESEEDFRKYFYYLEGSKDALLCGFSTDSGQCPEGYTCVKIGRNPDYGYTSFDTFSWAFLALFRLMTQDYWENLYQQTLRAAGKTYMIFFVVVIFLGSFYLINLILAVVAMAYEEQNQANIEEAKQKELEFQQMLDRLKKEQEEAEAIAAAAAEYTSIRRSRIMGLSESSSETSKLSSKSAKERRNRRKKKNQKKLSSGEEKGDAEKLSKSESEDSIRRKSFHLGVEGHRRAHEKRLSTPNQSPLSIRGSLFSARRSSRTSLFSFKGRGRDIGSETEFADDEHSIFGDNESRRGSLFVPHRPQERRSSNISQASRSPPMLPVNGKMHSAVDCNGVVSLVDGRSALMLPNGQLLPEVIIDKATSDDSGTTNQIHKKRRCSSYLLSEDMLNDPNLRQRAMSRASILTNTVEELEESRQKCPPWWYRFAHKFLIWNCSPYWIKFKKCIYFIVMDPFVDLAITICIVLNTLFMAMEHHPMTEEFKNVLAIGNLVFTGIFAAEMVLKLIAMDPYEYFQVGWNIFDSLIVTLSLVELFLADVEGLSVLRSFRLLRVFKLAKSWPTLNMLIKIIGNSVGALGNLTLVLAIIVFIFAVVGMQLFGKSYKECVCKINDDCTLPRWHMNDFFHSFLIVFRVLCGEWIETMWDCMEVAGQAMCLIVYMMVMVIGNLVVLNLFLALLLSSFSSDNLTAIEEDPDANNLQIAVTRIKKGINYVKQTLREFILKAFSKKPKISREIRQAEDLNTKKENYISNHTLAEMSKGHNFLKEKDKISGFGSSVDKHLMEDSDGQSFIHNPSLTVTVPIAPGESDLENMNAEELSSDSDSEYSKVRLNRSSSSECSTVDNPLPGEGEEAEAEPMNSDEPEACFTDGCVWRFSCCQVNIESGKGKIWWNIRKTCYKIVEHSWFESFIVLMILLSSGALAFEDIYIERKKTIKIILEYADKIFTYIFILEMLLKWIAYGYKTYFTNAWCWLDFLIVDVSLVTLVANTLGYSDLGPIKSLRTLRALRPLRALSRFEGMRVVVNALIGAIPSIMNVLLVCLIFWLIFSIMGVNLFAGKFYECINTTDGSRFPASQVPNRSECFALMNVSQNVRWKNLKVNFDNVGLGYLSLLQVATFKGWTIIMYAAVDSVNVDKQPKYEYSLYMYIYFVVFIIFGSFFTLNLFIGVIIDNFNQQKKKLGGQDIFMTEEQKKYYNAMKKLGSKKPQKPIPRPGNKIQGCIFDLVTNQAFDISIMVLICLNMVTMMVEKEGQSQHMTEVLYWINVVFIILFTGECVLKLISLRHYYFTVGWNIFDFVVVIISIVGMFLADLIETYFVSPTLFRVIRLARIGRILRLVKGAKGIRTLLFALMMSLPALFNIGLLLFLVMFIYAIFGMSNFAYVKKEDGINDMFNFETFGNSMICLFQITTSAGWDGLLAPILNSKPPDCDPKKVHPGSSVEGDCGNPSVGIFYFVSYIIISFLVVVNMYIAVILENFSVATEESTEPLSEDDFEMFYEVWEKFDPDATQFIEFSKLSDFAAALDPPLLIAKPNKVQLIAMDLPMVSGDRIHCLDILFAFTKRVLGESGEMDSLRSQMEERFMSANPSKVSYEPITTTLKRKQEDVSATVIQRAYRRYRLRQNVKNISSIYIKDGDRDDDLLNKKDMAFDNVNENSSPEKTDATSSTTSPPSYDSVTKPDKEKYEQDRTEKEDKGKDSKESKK
The series is described as follows: Automated patch clamp (Qube 384), internal block of NaV1.7. In kind it is cell-based. The settings on record: IC50, compound in internal solution, HEK293 cells, read-out: Nav1.7 Intracellular Inhibition. How it is done:
(§1) NaV1.7 was expressed in HEK293 cells upon induction with tetracycline. Cells were cultured in DMEM containing 10% dialyzed Fetal Bovine Serum (VWR, Radnor, Pa.), 1% Glutamax (VWR, Radnor, Pa.), 1% Penicillin-Streptomycin (VWR, Radnor, Pa.), 100 mg/L Hygromycin (Thermo Fisher Scientific, Waltham, Mass. and 5 mg/L Blasticidin (Alfa Aesar, Haverhill, Mass.). Cells were grown and maintained at 37° C. in a humidified environment containing 10% CO2 in air. Cells were detached from the culture flask for passage and harvested using 0.05% Trypsin-EDTA (Thermo Fisher Scientific, Waltham, Mass.). To induce NaV1.7, cells were induced with tetracycline (0.1-1 μg/mL, IBI Scientific, Peosta, Iowa) the day before recording.
(§2) Before experiments, cells were washed with DPBS (VWR, Radnor, Pa.), digested with Detachin (VWR Radnor, Pa.) and then triturated 10 times in CHO Serum-Free Media (VWR Radnor, Pa.) to resuspend the cells and to break apart cell aggregates. Cells were counted and the final concentration was set at 2-5 million cells per mL.
(§3) The intracellular solution contained the following: 140 mM CsF, 1 mM/5 mM EGTA/CsOH, 10 mM HEPES, 10 mM NaCl, adjusted to pH 7.3 with CsOH, and osmolality to 320 with OSM solution. The external solution contained the following: 145 mM NaCl, 4 mM KCl, 1 mM MgCl2, 2 mM CaCl2), 10 mM HEPES, 10 mM Glucose, adjusted to pH 7.4 with CsOH and osmolality to 305 with OSM solution. The OSM solution was a normal Ringer solution containing (in mM) NaCl 155, HEPES 10, sucrose, KCl 3.5, CaCl2) 1.5, MgCl2 1 adjusted to pH 7.4 with NaOH. All chemicals are from Sigma-Aldrich, St. Louis, Mo. In order to test the degree of internal block by test compounds, the compounds were dissolved in internal solution at the indicated test concentration. […] In order to test the degree of external block by test compounds the compounds were dissolved in external solution at the indicated test concentration.
(§4) Automated Patch Clamps were performed on Qube 384 (Sophion Bioscience, Woburn Mass.) with multihole Qchips at a temperature setting of 22 degrees. The whole cells configuration was formed with default Qube seal and break-in parameter. The membrane potential was held at −100 mV before the voltage protocol began. Two voltage protocols were followed.
(§5) Step 1: Cells were held at −100 mV with a depolarized pulse to −20 mV for 10 ms, the interval was set at 5 s. Currents were corrected by default leak subtraction from every pulse. The duration was set at 5 mins.
(§6) Step 2: Cells were held at −100 mV with a depolarized pulse to −20 mV for 10 ms. The frequency was 5 Hz. Currents were corrected by leak subtraction calculated before step 2. The duration was set at 4 mins.
After Step 2, the Qchip was removed from the recording chamber. The internal solution was changed with solutions containing test compounds. Qchips were held at −100 mV without pulsing after being replaced in the recording chamber. The total solution switching time was 8 minutes. After the internal solution exchange, Cells were recorded and step 2 for repeated for 10 minutes.
Data analysis was performed by Sophion Analyzer. Cells were filtered with minimum 50 MOhm seal resistance and minimum 5 nA starting current. The rundown of the currents was corrected with control cells (Non-Drug). The remaining was calculated by averaging last 3 points in the end of experiments. The base line was calculated as the average of last 3 points of Step 2.
IC50 curves were plotted with DR-plots/Hill function (a dose-response plot with a Hill fit).
Representative examples of the invention were tested for intracellular inhibition of NaV 1.7 in the automated patch clamp assay. Activity Range is reported as IC50: “++++” (<0.3 μM), “+++” (0.3-1 μM), “++” (1-3 μM) or “+” (3-10 μM).

Series [2] has as its target T1, NaV1.7. The series is described as follows: Automated patch clamp (Qube 384), external block of NaV1.7. It is filed as cell-based. The note with it: IC50, compound in external solution, HEK293 cells, read-out: Nav1.7 Extracellular Inhibition. The method, then:
as §1, §2, §3, §4, §5, §6
After Step 2, the external solution was changed with solutions containing test compounds. Qchips were held at −100 mV without pulsing. The total solution switching time was 8 minutes. After the external solution exchange, cells were recorded using the same procedure as step 2 for 10 minutes.
Data analysis was performed by Sophion Analyzer. Data were corrected with control cells (Non-Drug). The IC50 data were plotted with DR-plots/Hill function (a dose-response plot with a Hill fit). Representative examples of the invention were tested for extracellular inhibition of NaV 1.7 in the automated patch clamp assay. Activity Range is reported as IC50: “++++” ([…], “+++” (1-3 μM), “++” ([…]) or “+” (>10 μM). The results are presented below.

A short description of series [3]: PAMPA membrane permeability assay. It is filed as in vitro ADME. The settings on record: permeability coefficient, pH 7.4 buffer, GIT lipid, 4 hours incubation. The method, then: The PAMPA assay (pION, Inc., Woburn Mass.) was used to determine the ability of compounds of the invention to cross an artificial lipid membrane by passive diffusion. Test compounds were dissolved in DMSO (10 mM) and diluted 200-fold in buffer (pION Inc., pH 7.4) to provide 50 uM stock solutions. Buffer (150 μL) was added to a UV blank plate and stock solutions (150 μL) were transferred to a UV reference plate. The blank and reference spectrum were read using a spectrophotometer. Stock solutions (200 μL) were added to the donor plate of the PAMPA sandwich plate and an accept plate painted with GIT lipid (pION Inc, 5) was placed on top. Buffer (200 μL) was added to the acceptor plate and the PAMPA sandwich plate was incubated for 4 hours. Aliquots (150 μL) from the acceptor plate were added to a UV plate and read as acceptor spectrum. Aliquots (150 μL) of the donor solutions were added to a UV analysis plate and read as donor spectrum. The permeability coefficient of test compounds was calculated using PAMPA Explorer™ software (version 3.5.0.4) based on the AUC of the reference plate, the donor plate, and the acceptor plate.
The PAMPA permeability results (10^−6 cm/s) of representative compounds are reported as “+” (<0.1 10^−6 cm/s), “++” (0.1-2.0 10^−6 cm/s), “+++” (2.0-10.010^−6 cm/s) or “++++” (>10.0 10^−6 cm/s).

Series [4] concerns the target T1, NaV1.7. Nature of the series: Manual patch clamp, internal block of NaV1.7 current. In kind it is cell-based. The settings on record: compound in internal solution, HEK293 cells, read-out: Nav1.7 Intracellular Inhibition; for inhibition at 3 µM: % inhibition at 3 μM test concentration. How it is done: Representative compounds of the invention were synthesized according to the described methods and tested for the ability to inhibit voltage-gated sodium channels.
as §1, with “recording and plated onto 24-well plates. Cells were washed with DPBS (VWR, Radnor, Pa.), trypsinized and then triturated five times in 10 mL of growth media to break apart cell aggregates. For one 24-well plate, 2 mL of cell suspension was mixed with 23 mL of fresh growth media and 0.1-1 μg/mL tetracycline added. 1 ml of mixed media with cells was then added to each well of a 24-well plate, with a 12 mm coverslip already placed in the bottom of the well. Cells were then incubated in 37° C. and 10% CO2 overnight.” for “recording.”
The intracellular solution contained the following (in mM) CsCl 135, NaCl 10, EGTA 10, HEPES 10, MgCl2 2, adjusted to pH 7.2 with CsOH. The external solution was a normal Ringer solution containing (in mM) NaCl 155, HEPES 10, glucose 10, KCl 3.5, CaCl2 1.5, MgCl2 1 adjusted to pH 7.4 with NaOH. CsCl is from Alfa Aesar, Haverhill, Mass. All other chemicals are from Sigma-Aldrich, St. Louis, Mo. In order to test the degree of internal block by test compounds the compounds were dissolved in internal solution at the indicated test concentration. […] In order to test the degree of external block by test compounds the compounds were dissolved in external solution at the indicated test concentration.
18-24 hours after cells were induced with tetracycline, coverslips were placed into a chamber filled with Normal Ringer solution at room temperature and the chamber placed on a microscope. Pipettes were pulled from borosilicate glass on a P97 puller (Sutter Instrument, Novato, Calif.) and polished with a MF-830 Microforge (Narishige International USA, Inc., Amityville, N.Y.) to have a resistance of 1.5-2.5 MΩ when filled with CsCl internal solution at room temperature. Healthy cells (those that are round and translucent with no visible blemishes) were chosen for seal formation. A seal was formed between the pipette and the cell, and a brief pulse of suction was used to “break in” and establish the whole-cell configuration. The membrane potential was held at −100 mV before the voltage protocol began. Only cells with series resistance between 1.5-5 MΩ were retained for analysis. The voltage protocol was as follows: Cells were held at −100 mV for 12 ms followed by a hyperpolarizing step to −105 mV for 12 ms to monitor the leak. Cells were then stepped back to −100 mV for 40 ms. Cells were then depolarized to −20 mV for 10 ms and then returned to −100 mV for 26 ms.
Once the recording was started, the voltage protocol was run at 30 second intervals for 5 minutes to get a stable baseline. This was followed by four 30-second periods of 5 Hz stimulation of the same voltage protocol separated by 1 minute of rest which was then followed by 0.33 Hz stimulation after the last train. Currents were recorded using PatchMaster software with Heka EPC10 (HEKA Electronics, Lambrecht, Germany). Only cells with inward current amplitudes at −20 mV between 400 pA and 4 nA were accepted. In addition, cells having leak currents greater than 10% of their current amplitudes were discarded. […]

As to `Cc1cccc(C)c1NC(=O)C[N+]1(Cc2ccccc2)CCCCC1` [Compound 4], the pIC50 in series [1] is 6.00 to 6.52; in series [2] it was below 5.00.
Taken in the same sequence, the figures for `Cc1cccc(C)c1NC(=O)C[N+]1(Cc2ccccc2)CCCC1` [Compound 5] were 5.52 to 6.00 and below 5.00.
As to `CCC(C(=O)Nc1c(C)cccc1C)[N+]1(Cc2ccccc2)CCCCC1` (stereo not drawn) [Compound 6], the pIC50 was 6.00 to 6.52 in series [1] and below 5.00 in series [2].
With `Cc1cccc(C)c1NCC[N+]1(Cc2ccccc2)CCCCCC1` [Compound 84A, 1-benzyl-1-(2-((2,6-dimethylphenyl)amino)ethyl) azepan-1-ium trifluoroacetate], in series [1], the pIC50 was 5.00 to 5.52. In series [3], the “PAMPA (10^−6 cm/s)” value is recorded as “+ (“+” (<0.1 10^−6 cm/s))”.
Turning to `Cc1cccc(C)c1NC(=O)C[N+]1(Cc2ccccc2)CCCC(C(=O)NC2CCCC2)C1.[Br-]` (stereo not drawn) [Compound 60A], the pIC50 in series [1] was 5.52 to 6.00. Further, the “PAMPA (10^−6 cm/s)” value in series [3] is listed as “+ (“+” (<0.1 10^−6 cm/s))”.
For `Cc1cccc(C(F)(F)F)c1NC(=O)C[N+]1(Cc2ccccc2)CCCCCC1` [Compound 73A], in series [4], the inhibition at 3 µM is above 90%. In addition, the pIC50 in series [1] is 6.00 to 6.52.
In the case of `Cc1cccc(C)c1N1CCCC([N+]2(Cc3ccccc3)CCCCC2)C1=O` (stereo not drawn) [Compound 92A], the values for the pIC50 in series [1] and in series [2] were 5.52 to 6.00 and below 5.00, respectively.
As to `Cc1cccc(C)c1OCC[N+]1(Cc2ccccc2)CCCCCC1` [Compound 85A, 1-benzyl-1-(2-(2,6-dimethylphenoxy)ethyl) azepan-1-ium bromide], the inhibition at 3 µM in series [4] was above 90%. Also, the inhibition at 10 µM in series [4] (% inhibition at 10 μM test concentration) was above 95%. In addition, the pIC50 in series [1] is 5.52 to 6.00.
As for `Cc1cccc(O)c1NC(=O)C[N+]1(Cc2ccccc2)CCCCCC1.[Br-]` [Compound 79A, 1-benzyl-1-(2-((2-hydroxy-6-methylphenyl)amino)-2-oxoethyl) azepan-1-ium formate], the pIC50 in series [1] was 5.52 to 6.00. Also, the “PAMPA (10^−6 cm/s)” value in series [3] is on record as “+ (“+” (<0.1 10^−6 cm/s))”.
`Cc1cccc(C(=O)N(C)C)c1NC(=O)C[N+]1(Cc2ccccc2)CCCCCC1.[Br-]` [Compound 78A]: the pIC50 in series [1] was 5.00 to 5.52. For the same compound, the “PAMPA (10^−6 cm/s)” value in series [3] is recorded as “+ (“+” (<0.1 10^−6 cm/s))”.
Taken in the same sequence, the figures for `Cc1cccc(C)c1NC(=O)C[N+]1(Cc2ccccc2)CCCC(C(=O)NC2CCCCC2)C1.[Br-]` (stereo not drawn) [Compound 61A] were 5.00 to 5.52 and “+ (“+” (<0.1 10^−6 cm/s))”.
For `Cc1cccc(C)c1NC(=O)C[N+]1(Cc2ccccc2)CCCC(C(=O)OCC(C)C)C1.[Br-]` (stereo not drawn) [Compound 48A], in that order: 5.52 to 6.00 and “+ (“+” (<0.1 10^−6 cm/s))”.
As to `Cc1cccc(C)c1NC(=O)C[N+]1(Cc2ccccc2)CCCC(C(=O)OC2CCCC2)C1.[Br-]` (stereo not drawn) [Compound 50A], the pIC50 in series [1] is 5.52 to 6.00. In addition, in series [3], the “PAMPA (10^−6 cm/s)” value is listed as “+ (“+” (<0.1 10^−6 cm/s))”.
